# What was measured:
# [1] = biological target: epidermal growth factor receptor (EGFR); conditions: read-out: EGFR inhibition IC50; cited from earlier work
# [2] = tested on: human chronic myeloid leukaemia cells (K562); test: MTT antiproliferative assay, K562; assay type: cell-based; conditions: for inhibition at 10 µM: K562, 10 μM, read-out: Inhibition rate, K562; for IC50: K562, 48 h, MTT assay, 48 h, read-out: In vitro cytotoxicity IC50, K562
# Procedure: (§1) A549, PC-3, HepG2 and K562 cells were purchased from the Kunming cell bank of the Chinese academy of sciences. All cell lines were cultured in DMEM or RPMI 1640 complete medium. Logarithmic growth cells were cultured in 96-well plates at a concentration of 10^4 cells per well and pre-cultured for 24 h before adding test compounds. The MTT test with 5-Fluorouracil and Gefitinib as reference compounds were used to evaluate antiproliferative activity of target compounds in four human cancer line cells. For the estimation of the inhibition concentration (IC50), the Graph Pad Prism (GraphPad Software, San Diego, CA) was used.
# [3] = tested on: A549, PC-3, HepG2 and K562 cells; test: MTT antiproliferative assay, four cancer cell lines taken together; assay type: cell-based, human
# Procedure: as §1
# [4] = tested on: human liver cancer cells (HepG2); test: MTT antiproliferative assay, HepG2; assay type: cell-based; conditions: for inhibition at 10 µM: read-out: Inhibition rate, HepG2; for IC50: MTT assay, 48 h, read-out: In vitro cytotoxicity IC50, HepG2
# Procedure: as §1
# [5] = tested on: normal cell line (HEK293); test: MTT cytotoxicity, normal cell line HEK293; assay type: cell-based, human; conditions: Homo sapiens, HEK293; 10 μM; read-out: Inhibition rate, HEK293
# [6] = MTT cytotoxicity, normal cell line HEK293; assay type: cell-based, human; conditions: human, HEK293 cells (normal cell line); MTT assay, 48 h; normal cell line; CC50; read-out: In vitro cytotoxicity IC50, HEK293
# [7] = tested on: human prostate cancer cells (PC-3); test: MTT antiproliferative assay, PC-3; assay type: cell-based; conditions: Homo sapiens; for IC50: 48 h, MTT assay, read-out: In vitro cytotoxicity IC50, PC-3; for inhibition at 10 µM: read-out: Inhibition rate, PC-3
# Procedure: as §1
# [8] = tested on: human non-small cell lung cancer cells (A549); test: MTT antiproliferative assay, A549; assay type: cell-based; conditions: for inhibition at 10 µM: A549, 10 μM, read-out: Inhibition rate, A549; for IC50: A549, 48 h, MTT assay, 48 h, read-out: In vitro cytotoxicity IC50, A549
# Procedure: as §1
# MCF-7 cell = tested on: MCF-7 cell; parameters: method as in PMID 33130342; conditions: cited from earlier work
SMILES,IC50 [1] [µM],inhibition at 10 µM [2] [%],IC50 [2] [µM],antiproliferative activity in words [3],inhibition at 10 µM [4] [%],IC50 [4] [µM],inhibition at 10 µM [5] [%],IC50 at 48 h [6] [µM],IC50 [7] [µM],inhibition at 10 µM [7] [%],inhibition at 10 µM [8] [%],IC50 [8] [µM],"apoptosis in MCF-7 cell, in words (MCF-7 cell)"
C=CCSc1nnc(-c2cc3ccccc3[nH]2)n1N=Cc1c[nH]c2ccccc12 [Compound C],0.0198,–,–,–,–,–,–,–,–,–,–,–,–
"O=C(CSc1nnc(-c2ccccc2F)s1)Nc1cc(-c2c[nH]c3ccccc23)n[nH]1 [Compound 10g, N-(3-(1H-indol-3-yl)-1H-pyrazol-5-yl)-2-((5-(2-fluorophenyl)-1,3,4-thiadiazol-2-yl)thio)acetamide]",–,97.4 ± 0.838,3.32 ± 0.09,quite weak antiproliferative activity,56.9 ± 9.69,11.8 ± 2.02,68.1 ± 4.49,10.1 ± 2.2,2.98 ± 0.28,96.4 ± 2.21,55.2 ± 3.17,14.2 ± 1.61,–
"O=C(CSc1nnc(-c2ccccc2Br)s1)Nc1cc(-c2c[nH]c3ccccc23)n[nH]1 [Compound 10c, N-(3-(1H-indol-3-yl)-1H-pyrazol-5-yl)-2-((5–(2-bromophenyl)-1,3,4-thiadiazol-2-yl)thio)acetamide]",–,27.1 ± 1.87,33.7 ± 3.54,quite weak antiproliferative activity,11.9 ± 2.21,61.3 ± 17,33 ± 1.46,63.7 ± 6.51,31.9 ± 18,30.3 ± 12.6,24.3 ± 2.77,18.8 ± 2.92,–
O=C(Nc1nnc(SCc2ccc(Cl)c(Cl)c2)s1)c1cn(C2CC2)c2cc(N3CCNCC3)c(F)cc2c1=O [Compound B],–,–,–,–,–,–,–,–,–,–,–,–,inducing apoptosis significantly

# Source: PMC9848270, “Synthesis and biological assessment of indole derivatives containing penta-heterocycles scaffold as novel anticancer agents towards A549 and K562 cells” (Journal of Enzyme Inhibition and Medicinal Chemistry, 2023)
